Assay [1] concerns PANC-1. The assay is described as follows: Cytotoxicity against human PANC1 after 24 hrs by fluorometric microculture cytotoxicity assay. In kind it is functional, cell-based. The settings on record: PANC-1, 24 h.
Assay [2] deals with DU-145. The assay is described as follows: Cytotoxicity against human DU145 cells after 24 hrs by fluorometric microculture cytotoxicity assay. The class given is functional, cell-based. The note with it: DU-145, 24 h.
Assay [3] is described as follows: Cytotoxicity against mouse C3H10T1/2 cells after 24 hrs by fluorometric microculture cytotoxicity assay. In kind it is cell-based. The settings on record: C3H 10T1/2, 24 h.
Assay [4] deals with PANC-1. In words: Cytotoxicity against human PANC1 at 100 uM after 24 hrs by fluorometric microculture cytotoxicity assay. In kind it is functional, cell-based.
The subject of assay [5] is DU-145. The assay is described as follows: Cytotoxicity against human DU145 cells at 100 uM after 24 hrs by fluorometric microculture cytotoxicity assay. In kind it is functional, cell-based.
Assay [6] has as its target T1, Zinc finger protein GLI1 (Homo sapiens) (UniProt P08151).
T1 sequence (whole entry): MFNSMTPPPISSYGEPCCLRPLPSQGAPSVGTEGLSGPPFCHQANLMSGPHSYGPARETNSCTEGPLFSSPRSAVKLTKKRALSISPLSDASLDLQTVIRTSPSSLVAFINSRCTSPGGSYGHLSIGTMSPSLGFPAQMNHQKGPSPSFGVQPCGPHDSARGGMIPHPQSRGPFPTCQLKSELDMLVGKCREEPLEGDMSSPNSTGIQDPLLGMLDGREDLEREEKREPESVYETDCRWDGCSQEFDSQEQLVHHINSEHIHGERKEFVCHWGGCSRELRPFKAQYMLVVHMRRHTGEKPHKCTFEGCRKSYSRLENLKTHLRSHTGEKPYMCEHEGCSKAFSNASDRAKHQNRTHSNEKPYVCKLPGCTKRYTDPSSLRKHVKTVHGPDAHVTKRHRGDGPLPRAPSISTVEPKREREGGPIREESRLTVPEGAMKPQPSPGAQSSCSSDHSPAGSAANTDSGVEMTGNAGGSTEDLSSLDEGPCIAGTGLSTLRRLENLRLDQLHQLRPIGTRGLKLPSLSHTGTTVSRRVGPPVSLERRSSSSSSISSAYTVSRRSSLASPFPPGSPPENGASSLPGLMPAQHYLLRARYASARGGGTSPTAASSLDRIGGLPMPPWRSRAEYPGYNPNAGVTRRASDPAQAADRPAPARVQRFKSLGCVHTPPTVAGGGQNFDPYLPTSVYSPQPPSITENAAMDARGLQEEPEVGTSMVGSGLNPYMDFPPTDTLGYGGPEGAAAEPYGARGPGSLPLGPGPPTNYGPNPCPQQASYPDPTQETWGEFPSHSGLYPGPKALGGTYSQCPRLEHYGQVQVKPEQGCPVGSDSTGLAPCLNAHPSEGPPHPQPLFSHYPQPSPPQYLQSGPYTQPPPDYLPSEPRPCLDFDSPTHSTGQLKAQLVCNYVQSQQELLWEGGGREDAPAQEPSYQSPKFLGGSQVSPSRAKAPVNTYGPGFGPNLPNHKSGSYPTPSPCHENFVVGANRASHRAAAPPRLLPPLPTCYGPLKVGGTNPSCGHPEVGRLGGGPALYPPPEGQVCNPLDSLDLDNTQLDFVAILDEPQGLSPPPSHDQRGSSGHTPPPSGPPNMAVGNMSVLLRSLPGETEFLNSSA
The assay is described as follows: Inhibition of GLI1-mediated transcriptional activity in human HaCaT cells by luciferase based reporter gene assay. In kind it is cell-based.

Assay [7] has as its target T1, Zinc finger protein GLI1 (Homo sapiens). The assay is described as follows: Effect on Hh/GLI-mediated transcription in human HaCaT cells assessed as reduction of PTCH protein expression by Western blot. The class given is cell-based. Background: Immunoblotting shows a protein as a band on a membrane.
For assay [8] the target is unchanged. The assay is described as follows: Effect on Hh/GLI-mediated transcription in human HaCaT cells assessed as reduction of BCL2 protein expression by Western blot. In kind it is cell-based.
The target is the same in assay [9]. In words: Effect on Hh/GLI-mediated transcription in human PANC1 assessed as decrease in […] protein expression by Western blot. In kind it is cell-based. The settings on record: PANC-1.
For assay [10] the target is unchanged. In words: Effect on Hh/GLI-mediated transcription in human PANC1 assessed as decrease in BCL2 protein expression by Western blot. The class given is cell-based. The settings on record: PANC-1.
For assay [11] the target is unchanged. The assay is described as follows: Inhibition of GLI-mediated […] mRNA production in human PANC1 cells by RT-PCR analysis. The class given is cell-based. The settings on record: PANC-1.
For the next assay, the system named is HaCaT. In words: Decrease in GLI1 protein expression in human HaCaT cells by Western blot. The class given is functional, cell-based.

Calls of active or inactive are those of the source. The calls are words filed in the database; no cut-off is given here.

As usually defined, the IC50 is the concentration that gives 50% inhibition. On to `C=C(C)[C@@H]1CC[C@]2(C(=O)O)CC[C@]3(C)[C@H](CC[C@@H]4[C@@]5(C)[C@@H](C(=O)O)[C@H](O)C(C)(C)[C@@H]5CC[C@]43C)[C@@H]12` [CEANOTHIC ACID], for which the IC50 in the assay with PANC-1 [1] is 195 µM; with DU-145 [2], more than 200 µM; in [3], more than 200 µM. In addition, the result in the assay with PANC-1 [4] and in the assay on DU-145 [5] was inactive.
With `C=C(C)[C@@H]1CC[C@]2(C(=O)O)CC[C@]3(C)[C@H](CC[C@@H]4[C@@]5(C)[C@H](CO)[C@@H](O)C(C)(C)[C@@H]5CC[C@]43C)[C@@H]12` [CEANOTHANOLIC ACID], the IC50 (in the assay on PANC-1 [1]; in the assay with DU-145 [2]; in assay [3]) was more than 200 µM each time. Moreover, the result in the assay with PANC-1 [4] and with DU-145 [5] was inactive.
With `C=C(C)[C@@H]1CC[C@]2(C(=O)O)CC[C@]3(C)[C@H](CC[C@@H]4[C@@]5(C)C[C@@H](O)[C@H](O)C(C)(C)[C@@H]5CC[C@]43C)[C@@H]12` [ALPHITOLIC ACID], the Activity entry in [6] was “Dose-dependent effect”. For the same compound, the IC50 with PANC-1 [1] amounted to 41 µM; with DU-145 [2], 70 µM; in [3], 145 µM.
For the compound `C=C(C)[C@@H]1CC[C@]2(C(=O)O)CC[C@]3(C)[C@H](CC[C@@H]4[C@@]5(C)[C@H](C=O)[C@@H](O)C(C)(C)[C@@H]5CC[C@]43C)[C@@H]12` [COLUBRINIC ACID], the Activity entry in [6], in assay [7], in [8] and in assay [11] was “Dose-dependent effect” throughout. Moreover, the IC50 was 43 µM with PANC-1 [1], 78 µM in the assay on DU-145 [2] and 167 µM in assay [3]. Besides, the outcome in assay [9] and in [10] was Active.
Take `C=C(C)[C@@H]1CC[C@]2(C(=O)O)CC[C@]3(C)[C@H](CC[C@@H]4[C@@]5(C)CC[C@H](O)C(C)(C)[C@@H]5CC[C@]43C)[C@@H]12` [BETULINIC ACID]: the Activity result in assay [6] is “Dose-dependent effect”. Further, the IC50 in the assay with PANC-1 [1] is 44 µM; with DU-145 [2], 37 µM; in assay [3], 82 µM. Further, the outcome (in assay [7]; in assay [8]; in the assay on HaCaT; in assay [9]; in assay [10]) was Active.

Source of the values: ChEMBL document CHEMBL1142522, “Hedgehog/GLI-mediated transcriptional inhibitors from Zizyphus cambodiana” (Bioorg Med Chem, 2008).
